Legend:
FliIHis [1] = molecular target: T1, FliIHis; assay: pyruvate kinase/lactate dehydrogenase-linked ATPase assay; assay type: biochemical, Pseudomonas fluorescens; details: 1 mM ATP, 2 mM MgCl2, pH 8.0; allosteric
T1 construct: gene fliI

FliIΔ1–18 [2] = tested on: T2, FliIΔ1–18; assay type: biochemical; details: ATP substrate, 2 mM MgCl2, pH 8.0; allosteric
T2 construct: gene fliI; N-terminal truncation lacking first 18 residues, N-terminal His6 tag (pETNdeM-11), expressed in E. coli

HrcNHis = molecular target: T3, HrcNHis (Pseudomonas syringae group genomosp. 3, UniProt Q887B5); assay: pyruvate kinase/lactate dehydrogenase-linked ATPase assay; assay type: biochemical
T3 construct: gene sctN; full-length, N-terminal His6 tag (pETNdeM-11), expressed in E. coli

FliIHis [3] = tested on: T1, FliIHis; details: no cdG; 2 mM MgCl2, 10 mM KCl, pH 8.0
FliIΔ1–18 [4] = tested on: T4, FliIΔ1–18; details: no cdG; 2 mM MgCl2, 10 mM KCl, pH 8.0
T4 construct: gene fliI

T3 sequence (Q887B5 whole entry): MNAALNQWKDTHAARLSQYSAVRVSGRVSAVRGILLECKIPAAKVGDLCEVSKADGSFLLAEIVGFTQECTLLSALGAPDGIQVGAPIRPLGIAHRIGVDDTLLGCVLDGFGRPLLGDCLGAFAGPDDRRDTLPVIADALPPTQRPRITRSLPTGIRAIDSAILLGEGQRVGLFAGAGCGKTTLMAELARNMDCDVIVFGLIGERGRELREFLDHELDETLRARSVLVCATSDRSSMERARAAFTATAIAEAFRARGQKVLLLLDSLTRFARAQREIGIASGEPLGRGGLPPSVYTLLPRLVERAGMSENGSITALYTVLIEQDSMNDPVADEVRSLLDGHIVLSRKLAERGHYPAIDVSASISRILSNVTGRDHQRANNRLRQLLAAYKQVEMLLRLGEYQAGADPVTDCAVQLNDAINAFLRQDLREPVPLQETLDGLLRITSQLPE

Structure (SMILES): Nc1nc2c(ncn2[C@@H]2O[C@@H]3COP(=O)(O)O[C@H]4[C@@H](O)[C@H](n5cnc6c(=O)[nH]c(N)nc65)O[C@@H]4COP(=O)(O)O[C@H]3[C@H]2O)c(=O)[nH]1 [cdG]
- IC50 (FliIHis [1]): 36.7 ± 1.13 µM
- IC50 (FliIΔ1–18 [2]): 48.8 ± 0.159 µM
- IC50 (HrcNHis): 25.1 ± 1.14 µM

Structure (SMILES): Nc1ncnc2c1ncn2[C@@H]1O[C@H](COP(=O)(O)OP(=O)(O)OP(=O)(O)O)[C@@H](O)[C@H]1O [ATP]
- Km (FliIHis [3]): 0.48 ± 0.03 µM
- Km (FliIΔ1–18 [4]): 0.45 ± 0.04 µM

Reference: paper PMC4591828, “Bacterial Rotary Export ATPases Are Allosterically Regulated by the Nucleotide Second Messenger Cyclic-di-GMP” (The Journal of Biological Chemistry, 2015)
